From patent publication US9884821B2, “N1-cyclic amine-N5-substituted biguanide derivatives, methods of preparing the same and pharmaceutical composition comprising the same” (IMMUNOMET THERAPEUTICS INC., priority 2013, dated 2018)
Structures can show the parent of a compound that is named as a salt.

Key:
[1] = tested on: AMPK; assay: AMPK activation effect (AMPK [pT172] ELISA) in MCF7 cells; type: cell-based, human; settings: 24 hours; for AMPK activation effect (%) 10 μM / AMPK activation effect (%) 50 μM / AMPK activation effect (%) 5 μM: AMPKα Thr172 phosphorylation relative to untreated cells; for AC150: concentration at which AMPK activation reached 150%
Procedure: ELISA kit (Invitrogen, Catalog No. KH00651).
MCF7 cells were cultured in a DMEM medium supplemented with 10% fatal bovine serum (commercially available from Gibco Life Technologies (US)). Thereafter, the cultured MCF7 cells were put into a 6-well plate with approximately 5×10^5 cells per well, and cultured in an incubator supplied with 5% CO2. Culture media were treated with the derivatives synthesized in the Examples at concentrations of 5, 10 and 50 uM, and then cultured for 24 hours. […] Subsequently, the cells were lysed according to a method presented in the operation manual of the AMPK [pT172] ELISA kit, and 20 μg of a cell lysate was then yielded through protein assay. Thereafter, the AMPK activation effect was obtained by determining a degree of phosphorylation of a 172nd threonine residue (Thr172) of the AMPKα from the cell lysate according to the method presented in the operation manual of the AMPK [pT172] ELISA kit.

[2] = tested on: HCT116 cells; assay: Effect of inhibiting cancer cell proliferation (MTT) in HCT116 cells; type: cell-based, human; settings: Homo sapiens, HCT-116, 48 h; for inhibition at 100 µM: read-out: Cell growth inhibition (%) at 100 μM; for inhibition at 25 µM: read-out: Cell growth inhibition (%) at 25 μM
From the text: HCT116 cells derived from human colorectal cancer were used, and an effect of inhibiting cancer cell proliferation of the biguanide derivative was confirmed by measuring a concentration value (cell growth inhibition concentration, GIC50) at which cell growth was inhibited by 50% using a 3-(4,5-dimethylthiazol-2-yl)-2,5-diphenyltetrazolium bromide (MTT) reagent.
First, HCT116 cells (purchased from the KCLB) were put on a 96-well plate and cultured in a DMEM medium supplemented with 10% fatal bovine serum (commercially available from Gibco Life Technologies (US)) for 16 hours so that approximately 5,000 cells were counted in each well. Subsequently, to obtain the GIC50 value of each compound, the culture media were treated with 100 μM, 25 μM, 6.25 μM, 1.56 μM or 0.39 μM of the compound, and then cultured for 48 hours. In order to determine whether the cells survived after treatment with the compounds, MTT (commercially available from AMRESCO (US)) was added to the culture media which were then cultured for another 3 hours. Formed formazane crystals were dissolved using dimethyl sulfoxide (DMSO) and the absorbance of the resulting solution was measured at 560 nm. After the 48-hour culture, a ratio of a living cell count on a well plate treated with the compounds synthesized in the Examples to a cell count cultured on a well plate not treated with the compound was indicated as cell viability (%) according to the concentration of each treated compound. The cell viability (%) was used to plot a cell viability curve graph and calculate a concentration (GIC50) value of the compound at which the growth was inhibited by 50%, thereby confirming the inhibition effect of cancer cell proliferation.

| GI50 [2] | Structure (SMILES) | AMPK activation effect (%) 10 μM [1] | AC150 [1] | inhibition at 100 µM [2] | AMPK activation effect (%) 50 μM [1] | AMPK activation effect (%) 5 μM [1] | inhibition at 25 µM [2] |
| --- | --- | --- | --- | --- | --- | --- | --- |
| 10.1 µM | CC1=CCN(C(=N)NC(=N)Nc2ccc(OC(F)(F)F)cc2)C1.Cl [Example 15, N1-(3-methyl)-1,2-dihydropyrrole-N5-(4-trifluoromethoxy)phenyl biguanide hydrochloride] | 554% | 1.6 µM | 99.2% |  |  |  |
| 8.3 µM | Cl.N=C(NC(=N)N1CC=CC1)Nc1ccc(OC(F)(F)F)c(Cl)c1 [Example 10, N1-1,2-dihydropyrrole-N5-(3-chloro,4-trifluoromethoxy)phenyl biguanide hydrochloride] | 408% | 1.4 µM | 97.9% |  |  |  |
| 1.9 µM | CC1CCCN(C(=N)NC(=N)Nc2ccc(Cl)c(C(F)(F)F)c2)C1.Cl (stereo not shown) [Example 69, N1-(3-methyl)piperidine-N5-(4-chloro, 3-trifluoromethyl)phenyl biguanide hydrochloride] | 650% | 1.2 µM |  |  | 307% | 100% |
| 10.4 µM | CC1CCCN(C(=N)NC(=N)NCc2ccc(OC(F)(F)F)cc2)C1.Cl (stereo not shown) [Example 84, N1-(3-methyl)piperidine-N5-(4-trifluoromethoxy)benzyl biguanide hydrochloride] | 555% | 1.1 µM |  |  | 317% | 97% |
| 3.9 µM | CC1CCCN(C(=N)NC(=N)Nc2ccc(C(F)(F)F)c(F)c2)C1.Cl (stereo not shown) [Example 70, N1-(3-methyl)piperidine-N5-(3-fluoro, 4-trifluoromethyl)phenyl biguanide hydrochloride] | 602% | 0.9 µM |  |  | 365% | 100% |
| 4.9 µM | CC1=CCN(C(=N)NC(=N)Nc2cccc(OC(F)(F)F)c2)C1.Cl [Example 25, N1-(3-methyl)-1,2-dihydropyrrole-N5-(3-trifluoromethoxy)phenyl biguanide hydrochloride] | 376% | 2.2 µM | 96.6% |  |  |  |
| 8 µM | CC1CCCCN1C(=N)NC(=N)Nc1ccc(OC(F)(F)F)cc1.Cl (stereo not shown) [Example 72, N1-(2-methyl)piperidine-N5-(4-trifluoromethoxy)phenyl biguanide hydrochloride] | 386% | 2.0 µM |  |  | 210% | 100% |
| 7 µM | CC1CCCCN1C(=N)NC(=N)Nc1ccc(F)c(C(F)(F)F)c1.Cl (stereo not shown) [Example 78, N1-(2-methyl)piperidine-N5-(4-fluoro, 3-trifluoromethyl)phenyl biguanide hydrochloride] | 565% | 0.5 µM |  |  | 425% | 100% |
| 27.6 µM | CC1CCCN(C(=N)NC(=N)NCc2ccc(C(F)(F)F)cc2)C1.Cl (stereo not shown) [Example 86, N1-(3-methyl)piperidine-N5-(4-trifluoromethyl)benzyl biguanide hydrochloride] | 330% | 2.3 µM |  |  | 147% | 49% |
| 5.8 µM | CC1CCCCN1C(=N)NC(=N)Nc1ccc(OC(F)(F)F)c(F)c1.Cl (stereo not shown) [Example 76, N1-(2-methyl)piperidine-N5-(3-fluoro, 4-trifluoromethoxy)phenyl biguanide hydrochloride] | 375% | 1.7 µM |  |  | 242% | 100% |
| 6.8 µM | CC1CCCN(C(=N)NC(=N)Nc2cccc(OC(F)(F)F)c2)C1.Cl (stereo not shown) [Example 83, N1-(3-methyl)piperidine-N5-(3-trifluoromethoxy)phenyl biguanide hydrochloride] | 398% | 0.5 µM |  |  | 352% | 100% |

Continued, compound first:

| Structure (SMILES) | GI50 [2] | AMPK activation effect (%) 10 μM [1] | AC150 [1] | inhibition at 100 µM [2] | AMPK activation effect (%) 50 μM [1] | AMPK activation effect (%) 5 μM [1] | inhibition at 25 µM [2] |
| --- | --- | --- | --- | --- | --- | --- | --- |
| CC1=CCN(C(=N)NC(=N)NCc2ccc(Cl)c(C(F)(F)F)c2)C1.Cl [Example 27, N1-(3-methyl)-1,2-dihydropyrrole-N5-(4-chloro, 3-trifluoromethyl)benzyl biguanide hydrochloride] | 33.5 µM | 119% | 13.5 µM | 96.6% | 316% |  |  |
| COc1ccc(NC(=N)NC(=N)N2CC=C(C)C2)cc1OC.Cl [Example 23, N1-(3-methyl)-1,2-dihydropyrrole-N5-(3,4-dimethoxy)phenyl biguanide hydrochloride] | 89.9 µM | 57% | 21.3 µM | 29.5% | 279% |  |  |
| CC1CCCC(C)N1C(=N)NC(=N)Nc1ccc(Br)cc1 (stereo not shown) [Example 97, N1-(2,6-dimethyl)piperidine-N5-(4-bromo)phenyl biguanide hydrochloride] | 9.1 µM | 233% | 4.2 µM |  |  | 143% | 100% |
| COc1cccc(NC(=N)NC(=N)N2CC=CC2)c1.Cl [Example 43, N1-1,2-dihydropyrrole-N5-(3-methoxyl)phenyl biguanide hydrochloride] | 114 µM | 200% | 4.7 µM | 44.9% | 466% |  |  |
| CC1CCCC(C)N1C(=N)NC(=N)Nc1ccc(Cl)cc1.Cl (stereo not shown) [Example 96, N1-(2,6-dimethyl)piperidine-N5-(4-chloro)phenyl biguanide hydrochloride] | 10.4 µM | 395% | 1.8 µM |  |  | 240% | 101% |
| Cl.N=C(NCc1cccc(OC(F)(F)F)c1)NC(=N)N1CC=CCC1 [Example 55, N1-1,2,3,6-tetrahydropyridine-N5-(3-trifluoromethoxy)benzyl biguanide hydrochloride] | 22.8 µM | 389% | 2.1 µM | 97.9% | 608% |  |  |
| COc1cc(NC(=N)NC(=N)N2CC=CC2)cc(OC)c1.Cl [Example 45, N1-1,2-dihydropyrrole-N5-(3,5-dimethoxy)phenyl biguanide hydrochloride] | 107 µM | 202% | 4.8 µM | 47.2% | 299% |  |  |
| Cl.N=C(NCc1ccc(C(F)(F)F)cc1)NC(=N)N1CC=CC1 [Example 13, N1-1,2-dihydropyrrole-N5-(4-trifluoromethyl)benzyl biguanide hydrochloride] | 77.1 µM | 135% | 9.0 µM | 57.8% | 462% |  |  |
| CC1=CCN(C(=N)NC(=N)NCc2ccc(C(F)(F)F)cc2)C1.Cl [Example 26, N1-(3-methyl)-1,2-dihydropyrrole-N5-(4-trifluoromethyl)benzyl biguanide hydrochloride] | 8.2 µM | 443% | 0.68 µM | 96.7% | 358% |  |  |
